# Residue numbers refer to the chain shown, from its start. Where “and” joins values, the source holds several entries; their conditions need not be identical. Identical values can stand only once.
# Assays:
# hSGLT2 F453A = target: T1, hSGLT2 F453A (Homo sapiens, UniProt P31639, F453A); test: SGLT2 inhibitor-binding assay (AS-MS), crude membrane, F453A mutant; design: expressed in transfected cells; host or cells: Expi293 cells, crude membrane fraction; settings: 30 nM canagliflozin, replicates
# T1 sequence (P31639 1-672 F453A): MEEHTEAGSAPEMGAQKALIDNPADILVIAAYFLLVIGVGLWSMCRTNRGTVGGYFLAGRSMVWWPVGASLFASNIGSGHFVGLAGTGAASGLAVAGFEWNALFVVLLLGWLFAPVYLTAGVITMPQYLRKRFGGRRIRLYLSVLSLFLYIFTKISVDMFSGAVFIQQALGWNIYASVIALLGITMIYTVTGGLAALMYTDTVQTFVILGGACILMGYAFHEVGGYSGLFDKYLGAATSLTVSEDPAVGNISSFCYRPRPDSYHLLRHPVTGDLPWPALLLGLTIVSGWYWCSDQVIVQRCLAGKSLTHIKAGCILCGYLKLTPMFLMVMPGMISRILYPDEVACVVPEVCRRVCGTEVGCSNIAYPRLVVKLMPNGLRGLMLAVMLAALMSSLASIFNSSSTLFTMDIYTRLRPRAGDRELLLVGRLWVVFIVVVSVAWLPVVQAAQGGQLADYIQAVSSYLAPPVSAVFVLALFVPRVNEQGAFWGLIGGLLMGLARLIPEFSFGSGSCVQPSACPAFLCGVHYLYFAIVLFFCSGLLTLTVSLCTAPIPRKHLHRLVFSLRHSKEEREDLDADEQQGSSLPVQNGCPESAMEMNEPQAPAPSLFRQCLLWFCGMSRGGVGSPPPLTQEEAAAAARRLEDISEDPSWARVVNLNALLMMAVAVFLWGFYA
# T1 sequence (Q13113 1-114 partner): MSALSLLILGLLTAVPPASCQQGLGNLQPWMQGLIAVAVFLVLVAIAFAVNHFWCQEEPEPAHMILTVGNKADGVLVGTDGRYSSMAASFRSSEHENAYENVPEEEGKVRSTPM
# Text: (§1) hSGLT2 complementary DNA and human MAP17 cDNA were synthesized and codon-optimized for expression in human cell lines. Both cDNAs were cloned into the pcDNA3.4 vector. The hSGLT2 sequence was fused with an N-terminal signal sequence from human trypsinogen 1, a His10 tag, and sfGFP, followed by a human rhinovirus 3C protease (HRV3C protease) recognition site. Point mutations were introduced into this construct using site-directed mutagenesis. These plasmids were utilized for all experimental procedures conducted in this study.
# (§2) To examine the inhibition of binding to the crude membrane, mammalian Expi293 cells were co-transfected with the hMAP17 and hSGLT2 plasmids, as described. […] The extract solution from the filter plate was diluted with water containing candesartan as an internal standard, and the SGLT2 inhibitor concentration was quantified via LC–MS/MS.
# (§3) Nonspecific binding was measured using the crude membrane of nontransfected Expi293 cells. Specific binding was calculated by subtracting nonspecific binding from the binding of hSGLT2-expressing cells. Specific binding was normalized to hSGLT2 protein expression levels, measured via FSEC. The equilibrium dissociation constant (Kd) and maximum number of binding sites (Bmax) were calculated via nonlinear regression in GraphPad Prism 8.4.3. […]
# hSGLT2 F98A = target: T2, hSGLT2 F98A (Homo sapiens, UniProt P31639, F98A); test: SGLT2 inhibitor-binding assay (AS-MS), crude membrane, F98A mutant; design: expressed in transfected cells; host or cells: Expi293 cells, crude membrane fraction; settings: 30 nM canagliflozin, replicates
# T2 sequence (P31639 1-672 F98A): T1 sequence (P31639 1-672 F453A) with F98A, A453F
# T2 sequence (Q13113 1-114 partner): T1 sequence (Q13113 1-114 partner)
# Text: as §1, §2, §3
smiles,measurement,setting,value
Cc1ccc([C@@H]2O[C@H](CO)[C@@H](O)[C@H](O)[C@H]2O)cc1Cc1ccc(-c2ccc(F)cc2)s1 [Canagliflozin],Canagliflozin binding (% of WT),hSGLT2 F453A,4.952 % of WT and 11.6565 % of WT and 16.2768 % of WT
same,Canagliflozin binding (% of WT),hSGLT2 F98A,-6.142 % of WT and -5.964 % of WT and -3.041 % of WT

# From publication PMC10803289, “Transport and inhibition mechanism of the human SGLT2–MAP17 glucose transporter” (Nature Structural & Molecular Biology, 2023)
